System: 324938-238-R-J1-PDC complex spheroid viability
Test: Anticancer human tumor 324938-238-R-J1-PDC patient-derived bladder carcinoma cell line growth inhibition
Details: for IC50: curve of first compound; for viability, T/C: stronger effect = lower value
Method in brief: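 Complex spheroids of tumor cells with HUVEC and human MSCs, exposed to iadademstat combined with other agents. Each agent tested in half-log steps from near clinical Cmax (else 10 microM top), DMSO ≤0.25%.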

[1] = second compound 0.1 µM, first compound 0.0316 µM
[2] = second compound 0.1 µM, first compound 0.1 µM
[3] = second compound 0.1 µM, first compound 0.316 µM
[4] = second compound 0.1 µM, first compound 1 µM
[5] = second compound 0.1 µM, first compound 3.16 µM
[6] = second compound 0.1 µM, first compound 10 µM
[7] = second compound 0.316 µM, first compound 0.0316 µM
[8] = second compound 0.316 µM, first compound 0.1 µM
[9] = second compound 0.316 µM, first compound 0.316 µM
[10] = second compound 0.316 µM, first compound 1 µM
[11] = second compound 0.316 µM, first compound 3.16 µM
[12] = second compound 0.316 µM, first compound 10 µM
[13] = second compound 1 µM, first compound 0.0316 µM
[14] = second compound 1 µM, first compound 0.1 µM
[15] = second compound 1 µM, first compound 0.316 µM
[16] = second compound 1 µM, first compound 1 µM
[17] = second compound 1 µM, first compound 3.16 µM
[18] = second compound 1 µM, first compound 10 µM
[19] = second compound 3.16 µM, first compound 0.0316 µM
[20] = second compound 3.16 µM, first compound 0.1 µM
[21] = second compound 3.16 µM, first compound 0.316 µM
[22] = second compound 3.16 µM, first compound 1 µM
[23] = second compound 3.16 µM, first compound 3.16 µM
[24] = second compound 3.16 µM, first compound 10 µM
[25] = second compound 10 µM, first compound 0.0316 µM
[26] = second compound 10 µM, first compound 0.1 µM
[27] = second compound 10 µM, first compound 0.316 µM
[28] = second compound 10 µM, first compound 1 µM
[29] = second compound 10 µM, first compound 3.16 µM
[30] = second compound 10 µM, first compound 10 µM
[31] = second compound 0.1 µM, first compound 0.00316 µM
[32] = second compound 0.1 µM, first compound 0.01 µM
[33] = second compound 0.316 µM, first compound 0.00316 µM
[34] = second compound 0.316 µM, first compound 0.01 µM
[35] = second compound 1 µM, first compound 0.00316 µM
[36] = second compound 1 µM, first compound 0.01 µM
[37] = second compound 3.16 µM, first compound 0.00316 µM
[38] = second compound 3.16 µM, first compound 0.01 µM
[39] = second compound 10 µM, first compound 0.00316 µM
[40] = second compound 10 µM, first compound 0.01 µM
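Note: spheroids also contain HUVEC and human MSCs and agents combined with iadademstat; spheroids exposed to agents for 7 days before readout.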

CC(C)c1c(-c2ccccc2)nc2c(C#N)c[nH]n2c1=O + NC1CCC(NC2CC2c2ccccc2)CC1
IC50 (second compound 0.1 µM): > 10 µM
IC50 (second compound 0.316 µM): > 10 µM
IC50 (second compound 1 µM): > 10 µM
IC50 (second compound 3.16 µM): > 10 µM
IC50 (second compound 10 µM): > 10 µM
viability, T/C [1]: 69.7%
viability, T/C [2]: 90%
viability, T/C [3]: 85.2%
viability, T/C [4]: 89.2%
viability, T/C [5]: 82.2%
viability, T/C [6]: 74.6%
viability, T/C [7]: 83%
viability, T/C [8]: 84.1%
viability, T/C [9]: 84.4%
viability, T/C [10]: 84.8%
viability, T/C [11]: 81.4%
viability, T/C [12]: 78.7%
viability, T/C [13]: 87%
viability, T/C [14]: 90%
viability, T/C [15]: 78.2%
viability, T/C [16]: 84.9%
viability, T/C [17]: 81.6%
viability, T/C [18]: 80.9%
viability, T/C [19]: 72.8%
viability, T/C [20]: 78.9%
viability, T/C [21]: 87.7%
viability, T/C [22]: 80.6%
viability, T/C [23]: 80.1%
viability, T/C [24]: 74.3%
viability, T/C [25]: 66.5%
viability, T/C [26]: 70.7%
viability, T/C [27]: 75.9%
viability, T/C [28]: 75.1%
viability, T/C [29]: 65.6%
viability, T/C [30]: 77.9%

CC1COCCN1c1cc(-c2ccnn2C)c2ccnc(-c3ccn[nH]3)c2n1 (stereo not given) + NC1CCC(NC2CC2c2ccccc2)CC1
IC50 (second compound 0.1 µM): 0.026 µM
IC50 (second compound 0.316 µM): 0.0404 µM
IC50 (second compound 1 µM): 0.0363 µM
IC50 (second compound 3.16 µM): 0.0258 µM
IC50 (second compound 10 µM): 0.0216 µM
viability, T/C [31]: 88%
viability, T/C [32]: 64.2%
viability, T/C [1]: 49%
viability, T/C [2]: 31.5%
viability, T/C [3]: 17.3%
viability, T/C [4]: 13.4%
viability, T/C [33]: 76.9%
viability, T/C [34]: 80.9%
viability, T/C [7]: 52.5%
viability, T/C [8]: 31.2%
viability, T/C [9]: 17.4%
viability, T/C [10]: 15.2%
viability, T/C [35]: 80.8%
viability, T/C [36]: 73.2%
viability, T/C [13]: 51.8%
viability, T/C [14]: 31.2%
viability, T/C [15]: 18.7%
viability, T/C [16]: 14.8%
viability, T/C [37]: 72.8%
viability, T/C [38]: 59.6%
viability, T/C [19]: 49.7%
viability, T/C [20]: 31.8%
viability, T/C [21]: 19.9%
viability, T/C [22]: 15.5%
viability, T/C [39]: 72.3%
viability, T/C [40]: 60.3%
viability, T/C [25]: 44.7%
viability, T/C [26]: 30.8%
viability, T/C [27]: 20.1%
viability, T/C [28]: 14.3%

CC1COCCN1c1cc(C2(S(C)(=N)=O)CC2)nc(-c2ccnc3[nH]ccc23)n1 (stereo not given) + NC1CCC(NC2CC2c2ccccc2)CC1
IC50 (second compound 0.1 µM): 0.754 µM
IC50 (second compound 0.316 µM): 0.851 µM
IC50 (second compound 1 µM): 0.812 µM
IC50 (second compound 3.16 µM): 0.546 µM
IC50 (second compound 10 µM): 0.769 µM
viability, T/C [1]: 91.8%
viability, T/C [2]: 78.1%
viability, T/C [3]: 62.9%
viability, T/C [4]: 48.9%
viability, T/C [5]: 24.5%
viability, T/C [6]: 13.3%
viability, T/C [7]: 93.9%
viability, T/C [8]: 81.1%
viability, T/C [9]: 72%
viability, T/C [10]: 43.4%
viability, T/C [11]: 30.4%
viability, T/C [12]: 15.2%
viability, T/C [13]: 73.1%
viability, T/C [14]: 77.2%
viability, T/C [15]: 68.8%
viability, T/C [16]: 43.9%
viability, T/C [17]: 28.5%
viability, T/C [18]: 16.7%
viability, T/C [19]: 68.8%
viability, T/C [20]: 80%
viability, T/C [21]: 57.6%
viability, T/C [22]: 38.1%
viability, T/C [23]: 25.9%
viability, T/C [24]: 16.5%
viability, T/C [25]: 77.8%
viability, T/C [26]: 85.7%
viability, T/C [27]: 66.2%
viability, T/C [28]: 43.7%
viability, T/C [29]: 28.2%
viability, T/C [30]: 16.8%

COc1ccc([C@@H](O)c2cc(-c3ncnc4cc(N5CCOCC5)ccc34)c(F)cc2Cl)nn1 + NC1CCC(NC2CC2c2ccccc2)CC1
IC50 (second compound 0.1 µM): 1.75 µM
IC50 (second compound 0.316 µM): 1.87 µM
IC50 (second compound 1 µM): 1.33 µM
IC50 (second compound 3.16 µM): 0.944 µM
IC50 (second compound 10 µM): 1.09 µM
viability, T/C [1]: 81.4%
viability, T/C [2]: 70.8%
viability, T/C [3]: 63.3%
viability, T/C [4]: 61.1%
viability, T/C [5]: 42.8%
viability, T/C [6]: 26.8%
viability, T/C [7]: 80.8%
viability, T/C [8]: 76.7%
viability, T/C [9]: 61.4%
viability, T/C [10]: 58%
viability, T/C [11]: 47.7%
viability, T/C [12]: 28.9%
viability, T/C [13]: 72.9%
viability, T/C [14]: 73.4%
viability, T/C [15]: 65.2%
viability, T/C [16]: 50.3%
viability, T/C [17]: 42.6%
viability, T/C [18]: 28.5%
viability, T/C [19]: 70%
viability, T/C [20]: 78%
viability, T/C [21]: 59.3%
viability, T/C [22]: 48.4%
viability, T/C [23]: 38.3%
viability, T/C [24]: 26.4%
viability, T/C [25]: 64.8%
viability, T/C [26]: 76.5%
viability, T/C [27]: 61.6%
viability, T/C [28]: 50.2%
viability, T/C [29]: 37%
viability, T/C [30]: 26%

Nc1ncn(C2CC(O)C(CO)S2)c(=O)n1 (stereo not given) + NC1CCC(NC2CC2c2ccccc2)CC1
IC50 (second compound 0.1 µM): 0.0266 µM
IC50 (second compound 0.316 µM): 0.0199 µM
IC50 (second compound 1 µM): 0.0228 µM
IC50 (second compound 3.16 µM): 0.0131 µM
IC50 (second compound 10 µM): 0.0163 µM
viability, T/C (second compound 0.1 µM, first compound 0.000949 µM): 71.9%
viability, T/C (second compound 0.1 µM, first compound 0.003 µM): 73.7%
viability, T/C (second compound 0.1 µM, first compound 0.00949 µM): 62.8%
viability, T/C (second compound 0.1 µM, first compound 0.03 µM): 47.2%
viability, T/C (second compound 0.1 µM, first compound 0.0949 µM): 34.2%
viability, T/C (second compound 0.1 µM, first compound 0.3 µM): 22.8%
viability, T/C (second compound 0.316 µM, first compound 0.000949 µM): 74.1%
viability, T/C (second compound 0.316 µM, first compound 0.003 µM): 71.8%
viability, T/C (second compound 0.316 µM, first compound 0.00949 µM): 60.1%
viability, T/C (second compound 0.316 µM, first compound 0.03 µM): 43.9%
viability, T/C (second compound 0.316 µM, first compound 0.0949 µM): 30.6%
viability, T/C (second compound 0.316 µM, first compound 0.3 µM): 22.9%
viability, T/C (second compound 1 µM, first compound 0.000949 µM): 77.1%
viability, T/C (second compound 1 µM, first compound 0.003 µM): 64.8%
viability, T/C (second compound 1 µM, first compound 0.00949 µM): 58.3%
viability, T/C (second compound 1 µM, first compound 0.03 µM): 49.3%
viability, T/C (second compound 1 µM, first compound 0.0949 µM): 35.6%
viability, T/C (second compound 1 µM, first compound 0.3 µM): 23.8%
viability, T/C (second compound 3.16 µM, first compound 0.000949 µM): 70.6%
viability, T/C (second compound 3.16 µM, first compound 0.003 µM): 62.1%
viability, T/C (second compound 3.16 µM, first compound 0.00949 µM): 55.3%
viability, T/C (second compound 3.16 µM, first compound 0.03 µM): 39.2%
viability, T/C (second compound 3.16 µM, first compound 0.0949 µM): 32.7%
viability, T/C (second compound 3.16 µM, first compound 0.3 µM): 22.2%
viability, T/C (second compound 10 µM, first compound 0.000949 µM): 65.9%
viability, T/C (second compound 10 µM, first compound 0.003 µM): 64.3%
viability, T/C (second compound 10 µM, first compound 0.00949 µM): 51.3%
viability, T/C (second compound 10 µM, first compound 0.03 µM): 48.1%
viability, T/C (second compound 10 µM, first compound 0.0949 µM): 29.7%
viability, T/C (second compound 10 µM, first compound 0.3 µM): 22.3%

O=C(C=Cn1cnc(-c2cc(C(F)(F)F)cc(C(F)(F)F)c2)n1)NNc1cnccn1 + NC1CCC(NC2CC2c2ccccc2)CC1
IC50 (second compound 0.1 µM): 0.00466 µM
IC50 (second compound 0.316 µM): < 0.00316 µM
IC50 (second compound 1 µM): 0.00506 µM
IC50 (second compound 3.16 µM): 0.00422 µM
IC50 (second compound 10 µM): 0.00401 µM
viability, T/C [31]: 55.5%
viability, T/C [32]: 39.2%
viability, T/C [1]: 19.9%
viability, T/C [2]: 10.1%
viability, T/C [3]: 6.81%
viability, T/C [4]: 3.54%
viability, T/C [33]: 49.3%
viability, T/C [34]: 37.7%
viability, T/C [7]: 19.9%
viability, T/C [8]: 9.54%
viability, T/C [9]: 6.12%
viability, T/C [10]: 3.24%
viability, T/C [35]: 56.9%
viability, T/C [36]: 40%
viability, T/C [13]: 22.6%
viability, T/C [14]: 11.8%
viability, T/C [15]: 5.1%
viability, T/C [16]: 3.42%
viability, T/C [37]: 53.8%
viability, T/C [38]: 38.8%
viability, T/C [19]: 22.6%
viability, T/C [20]: 12%
viability, T/C [21]: 6.8%
viability, T/C [22]: 4.08%
viability, T/C [39]: 53.4%
viability, T/C [40]: 37.1%
viability, T/C [25]: 25.7%
viability, T/C [26]: 15.3%
viability, T/C [27]: 7.05%
viability, T/C [28]: 4.89%

— PubChem BioAssay AID1918935 (Molecular Pharmacology Branch, DTP, NCI, 2023)
